Holding throughout (test): Affinity-purification and mass spectrometry (AP-MS) chemical proteomics, all proteins;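 for Difference: 200 µM free competitor with 20 µM biotin probe overnight in lysate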
Common to all, as to format: binding

Assay [1] has as its target T1, proteins displaced from immobilized biotin-Cmpd 1 pulldowns (U2OS cell lysate) (Homo sapiens, UniProt P62424).
T1 construct: endogenous in cells; host or cells: U2OS
Conditions: GN=RPL7A (P62424).

The target of assay [2] is T2, proteins displaced from immobilized biotin-Cmpd 1 pulldowns (U2OS cell lysate) (Homo sapiens, UniProt Q9UH17).
T2 construct: endogenous in cells; host or cells: U2OS
Conditions: GN=APOBEC3B (Q9UH17).

Assay [3] deals with T3, proteins displaced from immobilized biotin-Cmpd 1 pulldowns (U2OS cell lysate) (Homo sapiens, UniProt P54098).
T3 construct: endogenous in cells; host or cells: U2OS
The note with it: GN=POLG (P54098).

Assay [4] has as its target T4, proteins displaced from immobilized biotin-Cmpd 1 pulldowns (U2OS cell lysate) (Homo sapiens, UniProt O15213).
T4 construct: endogenous in cells; host or cells: U2OS
Conditions: GN=WDR46 (O15213).

Assay [5] concerns the target T5, proteins displaced from immobilized biotin-Cmpd 1 pulldowns (U2OS cell lysate) (Homo sapiens, UniProt Q9NQC3).
T5 construct: endogenous in cells; host or cells: U2OS
Conditions: GN=RTN4 (Q9NQC3).

The target in assay [6] is T6, proteins displaced from immobilized biotin-Cmpd 1 pulldowns (U2OS cell lysate) (Homo sapiens, UniProt P01040).
T6 construct: endogenous in cells; host or cells: U2OS
Conditions: GN=CSTA (P01040).

The source of these data is article PMC9481570, “A small molecule antagonist of SMN disrupts the interaction between SMN and RNAP II” (Nature Communications, 2022).

SMILES strings stand for the structures. Where “and” joins values, the source holds several entries; their conditions need not be identical. Equal values may be shown once.

T2 sequence (Q9UH17 whole entry): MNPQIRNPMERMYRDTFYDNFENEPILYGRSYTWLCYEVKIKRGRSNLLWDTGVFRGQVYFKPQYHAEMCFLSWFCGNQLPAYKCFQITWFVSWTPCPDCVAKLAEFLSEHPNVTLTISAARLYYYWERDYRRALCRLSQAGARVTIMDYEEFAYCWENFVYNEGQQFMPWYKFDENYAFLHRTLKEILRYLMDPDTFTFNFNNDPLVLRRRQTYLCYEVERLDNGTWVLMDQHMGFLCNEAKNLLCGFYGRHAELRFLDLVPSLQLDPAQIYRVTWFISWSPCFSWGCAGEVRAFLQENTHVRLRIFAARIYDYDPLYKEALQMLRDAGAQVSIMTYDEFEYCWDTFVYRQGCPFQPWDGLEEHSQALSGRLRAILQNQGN
T3 sequence (P54098 whole entry): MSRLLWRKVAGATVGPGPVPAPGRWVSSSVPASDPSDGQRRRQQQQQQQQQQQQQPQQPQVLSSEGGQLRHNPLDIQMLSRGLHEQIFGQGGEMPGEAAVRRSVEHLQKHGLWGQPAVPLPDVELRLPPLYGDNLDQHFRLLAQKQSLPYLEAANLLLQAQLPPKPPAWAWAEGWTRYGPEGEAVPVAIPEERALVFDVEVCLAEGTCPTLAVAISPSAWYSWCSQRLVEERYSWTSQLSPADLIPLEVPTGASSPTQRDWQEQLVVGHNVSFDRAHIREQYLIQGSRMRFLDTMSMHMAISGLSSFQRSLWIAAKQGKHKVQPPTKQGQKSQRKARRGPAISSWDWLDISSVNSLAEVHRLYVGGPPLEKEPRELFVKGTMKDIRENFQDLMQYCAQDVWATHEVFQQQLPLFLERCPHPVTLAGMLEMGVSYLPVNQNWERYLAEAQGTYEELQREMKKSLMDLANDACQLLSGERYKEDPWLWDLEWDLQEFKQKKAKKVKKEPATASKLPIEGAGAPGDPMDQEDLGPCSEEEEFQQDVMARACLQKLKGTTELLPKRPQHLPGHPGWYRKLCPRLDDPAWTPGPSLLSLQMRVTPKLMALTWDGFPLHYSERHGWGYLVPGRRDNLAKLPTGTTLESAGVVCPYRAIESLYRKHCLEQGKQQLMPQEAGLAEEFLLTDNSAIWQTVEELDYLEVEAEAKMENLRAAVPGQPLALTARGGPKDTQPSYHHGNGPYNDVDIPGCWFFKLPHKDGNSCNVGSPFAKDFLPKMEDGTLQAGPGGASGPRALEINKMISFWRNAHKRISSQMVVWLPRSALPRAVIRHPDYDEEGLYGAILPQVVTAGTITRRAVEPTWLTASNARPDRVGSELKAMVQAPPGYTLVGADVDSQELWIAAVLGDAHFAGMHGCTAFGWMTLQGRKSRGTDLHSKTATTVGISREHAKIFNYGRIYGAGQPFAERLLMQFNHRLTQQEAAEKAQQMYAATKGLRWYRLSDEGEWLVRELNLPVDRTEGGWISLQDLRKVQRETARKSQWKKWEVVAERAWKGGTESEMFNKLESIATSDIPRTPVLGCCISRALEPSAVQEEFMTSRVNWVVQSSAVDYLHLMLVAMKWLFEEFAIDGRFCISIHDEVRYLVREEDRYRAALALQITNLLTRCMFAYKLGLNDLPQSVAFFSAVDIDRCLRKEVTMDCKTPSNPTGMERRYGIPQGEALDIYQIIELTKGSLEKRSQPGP
T5 sequence (Q9NQC3 whole entry): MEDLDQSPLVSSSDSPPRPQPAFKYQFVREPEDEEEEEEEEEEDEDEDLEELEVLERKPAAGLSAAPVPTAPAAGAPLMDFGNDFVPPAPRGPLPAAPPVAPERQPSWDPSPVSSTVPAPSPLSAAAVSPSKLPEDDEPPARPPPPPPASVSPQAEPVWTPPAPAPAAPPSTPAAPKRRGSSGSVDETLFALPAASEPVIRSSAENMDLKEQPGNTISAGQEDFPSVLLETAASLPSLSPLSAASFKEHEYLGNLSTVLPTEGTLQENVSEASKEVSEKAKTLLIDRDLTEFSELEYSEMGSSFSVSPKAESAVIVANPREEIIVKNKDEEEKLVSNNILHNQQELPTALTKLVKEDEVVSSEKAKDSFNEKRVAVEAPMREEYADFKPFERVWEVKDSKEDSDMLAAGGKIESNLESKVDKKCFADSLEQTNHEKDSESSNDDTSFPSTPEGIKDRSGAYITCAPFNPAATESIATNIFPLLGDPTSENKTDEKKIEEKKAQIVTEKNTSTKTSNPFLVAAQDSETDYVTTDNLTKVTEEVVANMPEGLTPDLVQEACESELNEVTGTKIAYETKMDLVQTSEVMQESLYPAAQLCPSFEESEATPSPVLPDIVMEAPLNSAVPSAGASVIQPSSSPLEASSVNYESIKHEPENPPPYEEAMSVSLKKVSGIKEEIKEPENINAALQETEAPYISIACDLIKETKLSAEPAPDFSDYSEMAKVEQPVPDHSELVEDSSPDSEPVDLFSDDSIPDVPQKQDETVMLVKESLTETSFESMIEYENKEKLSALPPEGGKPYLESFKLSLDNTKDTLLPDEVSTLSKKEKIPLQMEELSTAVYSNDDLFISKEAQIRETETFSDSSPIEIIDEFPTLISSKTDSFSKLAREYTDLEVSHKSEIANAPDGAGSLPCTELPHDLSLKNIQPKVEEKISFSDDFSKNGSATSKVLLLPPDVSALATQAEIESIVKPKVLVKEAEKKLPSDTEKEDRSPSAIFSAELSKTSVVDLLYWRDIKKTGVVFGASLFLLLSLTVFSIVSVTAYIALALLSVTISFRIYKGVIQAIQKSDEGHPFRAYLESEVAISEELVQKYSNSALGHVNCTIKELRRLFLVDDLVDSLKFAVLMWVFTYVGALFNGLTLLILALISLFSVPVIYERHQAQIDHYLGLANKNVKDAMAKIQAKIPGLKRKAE
T4 sequence (O15213 whole entry): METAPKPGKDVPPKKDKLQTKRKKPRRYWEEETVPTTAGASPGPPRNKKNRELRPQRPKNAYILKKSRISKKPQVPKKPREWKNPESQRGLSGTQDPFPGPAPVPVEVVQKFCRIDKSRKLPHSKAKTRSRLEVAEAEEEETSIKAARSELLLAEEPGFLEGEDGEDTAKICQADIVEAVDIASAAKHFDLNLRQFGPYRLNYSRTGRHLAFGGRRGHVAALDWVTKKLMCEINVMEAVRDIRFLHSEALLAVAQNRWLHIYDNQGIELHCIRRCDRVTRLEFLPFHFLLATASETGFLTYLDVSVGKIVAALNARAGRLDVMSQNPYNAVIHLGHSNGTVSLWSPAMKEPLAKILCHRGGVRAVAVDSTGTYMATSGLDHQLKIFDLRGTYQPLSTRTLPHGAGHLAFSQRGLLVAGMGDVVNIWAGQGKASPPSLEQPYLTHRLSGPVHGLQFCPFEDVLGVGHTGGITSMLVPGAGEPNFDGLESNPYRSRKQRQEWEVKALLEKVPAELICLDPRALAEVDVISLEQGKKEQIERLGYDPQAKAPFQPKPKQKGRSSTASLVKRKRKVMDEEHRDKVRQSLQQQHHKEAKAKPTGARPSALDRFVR
T6 sequence (P01040 whole entry): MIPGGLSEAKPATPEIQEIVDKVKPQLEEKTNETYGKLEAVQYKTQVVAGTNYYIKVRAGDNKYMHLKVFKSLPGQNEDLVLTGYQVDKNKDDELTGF

As to `Cn1c2c(c(=N)c3c1CCC3)CCC2` [Compound 1, 4-methyl-2,3,4,5,6,7-hexahydrodicyclopenta[b,e]pyridin-8(1H)-imine], the Difference in assay [1] (Cmpd minus DMSO, -LOG(P-value) 0.865251) is reported as 0.2314; in assay [2] (Cmpd minus DMSO, -LOG(P-value) 0.938202), -0.8112; in assay [3] (Cmpd minus DMSO, -LOG(P-value) 0.92162), 0.489; in assay [4] (Cmpd minus DMSO, -LOG(P-value) 1.25579), -1.697; in assay [5] (Cmpd minus DMSO, -LOG(P-value) 0.85719), 2.734; in assay [6] (Cmpd minus DMSO, -LOG(P-value) 0.909034), -0.9866. Also, the “iBAQ Cmpd” value in assay [1] (replicates 1-3) was 25.9383 and 25.6872 and 25.6067; in assay [2] (replicates 1-3), 21.4277 and 21.5751 and 21.8529; in assay [3] (replicates 1-3), 17.0695 and 17.0761 and 17.6776; in assay [4] (replicates 1-3), 17.4002 and 17.0091 and 16.4289; in assay [5] (replicates 1-3) it was 19.1423 and 18.4673 and 18.3569; in assay [6] (replicates 1-3) it was 23.1983 and 23.5243 and 22.4826.
